The numbers were not newly measured in patent publication US20070281997A1, “TREATMENT OF HOT FLASHES USING MUSCARINIC RECEPTOR ANTAGONISTS” (priority 2006, published 2007), which cites them from elsewhere.

The data set deals with hot flashes. The following applies: men receiving androgen deprivation therapy; previous reports, pilot studies.

On to `CC(=O)[C@@]1(O)CC[C@H]2[C@@H]3C=C(C)C4=CC(=O)CC[C@]4(C)[C@H]3CC[C@@]21C` [megasterol], for which the “efficacy to reduce hot flashes” value is recorded as “efficacious”.

In the case of `Fc1ccc([C@@H]2CCNC[C@H]2COc2ccc3c(c2)OCO3)cc1` [paroxetine], the “efficacy to reduce hot flashes” value is “shown efficacy”.

For the compound `COc1ccc(C(CN(C)C)C2(O)CCCCC2)cc1` (stereo not drawn) [venlafaxine], the “efficacy to reduce hot flashes” value is “shown efficacy”.
